Reference: ChEMBL document CHEMBL4507273 (2021)

Legend:
[1] = target: Maternal embryonic leucine zipper kinase (Homo sapiens) (UniProt Q14680); conditions: Compound concentration 1000.0 nM
[2] = target: Ephrin type-A receptor 5 (Homo sapiens) (UniProt P54756); conditions: Compound concentration 1000.0 nM
[3] = target: T1, 5-hydroxytryptamine receptor 2C (Homo sapiens, UniProt P28335); test: GPCRScan assay: inhibition of 5-HT2C; design: radioligand conc. used [nm] 1.0 – 2.5, parental cells HEK T
T1 sequence (P28335 whole entry): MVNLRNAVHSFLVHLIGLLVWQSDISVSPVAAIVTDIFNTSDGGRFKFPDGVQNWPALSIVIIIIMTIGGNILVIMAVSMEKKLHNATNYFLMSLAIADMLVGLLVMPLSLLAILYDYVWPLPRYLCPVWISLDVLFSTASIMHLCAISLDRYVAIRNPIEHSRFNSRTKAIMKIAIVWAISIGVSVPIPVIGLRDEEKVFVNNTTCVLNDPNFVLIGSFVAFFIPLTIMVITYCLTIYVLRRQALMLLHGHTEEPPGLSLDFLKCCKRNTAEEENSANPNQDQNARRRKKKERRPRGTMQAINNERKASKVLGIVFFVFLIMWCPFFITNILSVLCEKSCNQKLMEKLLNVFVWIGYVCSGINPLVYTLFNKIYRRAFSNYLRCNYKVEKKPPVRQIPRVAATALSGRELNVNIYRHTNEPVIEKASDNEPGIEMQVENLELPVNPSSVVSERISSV

[4] = target: Serine/threonine-protein kinase PAK 2 (Homo sapiens) (UniProt Q13177); conditions: Compound concentration 1000.0 nM
[5] = target: Phosphatidylinositol 3-kinase catalytic subunit type 3 (Homo sapiens) (UniProt Q8NEB9); conditions: Compound concentration 1000.0 nM
[6] = target: Serine/threonine-protein kinase 24 (Homo sapiens) (UniProt Q9Y6E0); conditions: Compound concentration 1000.0 nM
Chain of Serine/threonine-protein kinase 24 (Homo sapiens) (Q9Y6E0 whole entry, looked up): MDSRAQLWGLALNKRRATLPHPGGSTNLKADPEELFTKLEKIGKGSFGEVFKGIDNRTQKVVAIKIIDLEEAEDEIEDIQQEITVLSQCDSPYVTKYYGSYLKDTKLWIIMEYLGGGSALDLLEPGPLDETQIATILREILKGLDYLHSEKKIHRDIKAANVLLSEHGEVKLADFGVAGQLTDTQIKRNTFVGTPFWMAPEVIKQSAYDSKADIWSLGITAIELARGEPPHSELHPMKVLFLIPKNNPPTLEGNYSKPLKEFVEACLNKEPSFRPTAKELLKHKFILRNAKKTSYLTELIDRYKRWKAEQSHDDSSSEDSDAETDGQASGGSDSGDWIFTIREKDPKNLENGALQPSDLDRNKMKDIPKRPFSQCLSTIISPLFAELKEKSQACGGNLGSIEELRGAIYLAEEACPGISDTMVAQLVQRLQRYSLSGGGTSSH

[7] = target: Beta-adrenergic receptor kinase 1 (Homo sapiens) (UniProt P25098); conditions: Compound concentration 1000.0 nM
[8] = target: Alpha-2A adrenergic receptor (Homo sapiens, UniProt P08913); test: GPCRScan assay: inhibition of Alpha2A; design: radioligand conc. used [nm] 1.0 – 3.0, parental cells stable MDCK
[9] = target: Mitogen-activated protein kinase 13 (Homo sapiens) (UniProt O15264); conditions: Compound concentration 1000.0 nM
[10] = target: Non-receptor tyrosine-protein kinase TYK2 (Homo sapiens) (UniProt P29597); conditions: Compound concentration 1000.0 nM
[11] = target: Ankyrin repeat and protein kinase domain-containing protein 1 (Homo sapiens) (UniProt Q8NFD2); conditions: Compound concentration 1000.0 nM
[12] = target: Serine/threonine-protein kinase 38-like (Homo sapiens) (UniProt Q9Y2H1); conditions: Compound concentration 1000.0 nM
[13] = target: STE20-like serine/threonine-protein kinase (Homo sapiens) (UniProt Q9H2G2); conditions: Compound concentration 1000.0 nM
[14] = target: Dual specificity mitogen-activated protein kinase kinase 1 (Homo sapiens) (UniProt Q02750); conditions: Compound concentration 1000.0 nM
Chain of Dual specificity mitogen-activated protein kinase kinase 1 (Homo sapiens) (Q02750 whole entry): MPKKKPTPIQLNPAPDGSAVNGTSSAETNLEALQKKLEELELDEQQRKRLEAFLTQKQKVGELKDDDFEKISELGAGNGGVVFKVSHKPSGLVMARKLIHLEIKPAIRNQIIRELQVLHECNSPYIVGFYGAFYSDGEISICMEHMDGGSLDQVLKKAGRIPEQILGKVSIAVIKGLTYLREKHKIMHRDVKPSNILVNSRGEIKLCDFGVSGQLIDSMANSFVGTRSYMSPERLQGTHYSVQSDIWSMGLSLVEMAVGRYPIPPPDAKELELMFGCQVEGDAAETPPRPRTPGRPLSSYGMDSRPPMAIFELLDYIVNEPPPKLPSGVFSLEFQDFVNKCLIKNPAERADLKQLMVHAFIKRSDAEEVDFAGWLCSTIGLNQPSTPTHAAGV

[15] = target: Aurora kinase B (Homo sapiens) (UniProt Q96GD4); conditions: Compound concentration 1000.0 nM
[16] = target: Serine/threonine-protein kinase SIK1 (Homo sapiens) (UniProt P57059); conditions: Compound concentration 1000.0 nM
[17] = target: Serine/threonine-protein kinase 17A (Homo sapiens) (UniProt Q9UEE5); conditions: Compound concentration 1000.0 nM
Chain of Serine/threonine-protein kinase 17A (Homo sapiens) (Q9UEE5 whole entry): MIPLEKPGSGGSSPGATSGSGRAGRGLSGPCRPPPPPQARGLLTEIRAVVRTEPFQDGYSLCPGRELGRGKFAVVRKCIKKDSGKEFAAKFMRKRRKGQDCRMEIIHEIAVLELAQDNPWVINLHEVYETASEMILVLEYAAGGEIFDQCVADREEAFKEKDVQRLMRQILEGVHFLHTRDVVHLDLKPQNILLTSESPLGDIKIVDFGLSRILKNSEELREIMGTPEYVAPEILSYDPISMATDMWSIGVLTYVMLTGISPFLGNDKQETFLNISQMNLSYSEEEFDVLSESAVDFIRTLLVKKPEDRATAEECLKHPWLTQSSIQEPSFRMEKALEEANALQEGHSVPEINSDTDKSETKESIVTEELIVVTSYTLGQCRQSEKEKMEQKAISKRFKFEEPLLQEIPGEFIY

[18] = target: Focal adhesion kinase 1 (Homo sapiens) (UniProt Q05397); conditions: Compound concentration 1000.0 nM
Chain of Focal adhesion kinase 1 (Homo sapiens) (Q05397 2-1052 limits assumed): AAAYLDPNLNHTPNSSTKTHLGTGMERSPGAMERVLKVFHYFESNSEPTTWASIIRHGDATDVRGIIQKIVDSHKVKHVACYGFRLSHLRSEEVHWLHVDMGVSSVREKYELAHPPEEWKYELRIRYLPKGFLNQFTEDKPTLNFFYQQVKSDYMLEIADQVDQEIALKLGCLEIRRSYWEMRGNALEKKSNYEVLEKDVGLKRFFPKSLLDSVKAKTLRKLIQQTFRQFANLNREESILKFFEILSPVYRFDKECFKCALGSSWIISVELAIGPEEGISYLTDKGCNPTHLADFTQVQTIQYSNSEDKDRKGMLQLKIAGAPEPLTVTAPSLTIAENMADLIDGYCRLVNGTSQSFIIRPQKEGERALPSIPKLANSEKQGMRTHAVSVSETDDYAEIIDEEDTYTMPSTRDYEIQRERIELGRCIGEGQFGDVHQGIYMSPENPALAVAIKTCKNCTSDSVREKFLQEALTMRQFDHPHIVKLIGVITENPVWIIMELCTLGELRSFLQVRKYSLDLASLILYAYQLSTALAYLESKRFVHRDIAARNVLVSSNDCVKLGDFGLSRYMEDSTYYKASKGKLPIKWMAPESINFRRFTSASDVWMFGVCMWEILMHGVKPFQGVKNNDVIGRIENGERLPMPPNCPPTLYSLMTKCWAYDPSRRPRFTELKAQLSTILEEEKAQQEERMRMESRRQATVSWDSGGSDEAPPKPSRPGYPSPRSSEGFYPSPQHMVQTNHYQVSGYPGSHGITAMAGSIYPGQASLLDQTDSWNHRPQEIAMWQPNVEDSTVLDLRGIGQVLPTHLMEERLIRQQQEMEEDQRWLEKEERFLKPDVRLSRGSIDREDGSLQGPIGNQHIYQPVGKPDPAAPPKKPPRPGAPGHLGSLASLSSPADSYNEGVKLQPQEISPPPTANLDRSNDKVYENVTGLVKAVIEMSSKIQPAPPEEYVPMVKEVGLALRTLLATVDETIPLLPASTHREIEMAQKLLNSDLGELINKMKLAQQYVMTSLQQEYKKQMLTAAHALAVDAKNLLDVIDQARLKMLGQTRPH

[19] = target: Cyclin-dependent kinase 5 (Homo sapiens) (UniProt Q00535); conditions: Compound concentration 1000.0 nM
[20] = target: Calcium/calmodulin-dependent protein kinase type IV (Homo sapiens) (UniProt Q16566); conditions: Compound concentration 1000.0 nM
[21] = test system: Mast/stem cell growth factor receptor Kit (Homo sapiens), P10721 [V559D,T670I]; conditions: Compound concentration 1000.0 nM
Chain of Mast/stem cell growth factor receptor Kit (Homo sapiens), P10721 [V559D,T670I] (P10721 whole entry V559D/T670I): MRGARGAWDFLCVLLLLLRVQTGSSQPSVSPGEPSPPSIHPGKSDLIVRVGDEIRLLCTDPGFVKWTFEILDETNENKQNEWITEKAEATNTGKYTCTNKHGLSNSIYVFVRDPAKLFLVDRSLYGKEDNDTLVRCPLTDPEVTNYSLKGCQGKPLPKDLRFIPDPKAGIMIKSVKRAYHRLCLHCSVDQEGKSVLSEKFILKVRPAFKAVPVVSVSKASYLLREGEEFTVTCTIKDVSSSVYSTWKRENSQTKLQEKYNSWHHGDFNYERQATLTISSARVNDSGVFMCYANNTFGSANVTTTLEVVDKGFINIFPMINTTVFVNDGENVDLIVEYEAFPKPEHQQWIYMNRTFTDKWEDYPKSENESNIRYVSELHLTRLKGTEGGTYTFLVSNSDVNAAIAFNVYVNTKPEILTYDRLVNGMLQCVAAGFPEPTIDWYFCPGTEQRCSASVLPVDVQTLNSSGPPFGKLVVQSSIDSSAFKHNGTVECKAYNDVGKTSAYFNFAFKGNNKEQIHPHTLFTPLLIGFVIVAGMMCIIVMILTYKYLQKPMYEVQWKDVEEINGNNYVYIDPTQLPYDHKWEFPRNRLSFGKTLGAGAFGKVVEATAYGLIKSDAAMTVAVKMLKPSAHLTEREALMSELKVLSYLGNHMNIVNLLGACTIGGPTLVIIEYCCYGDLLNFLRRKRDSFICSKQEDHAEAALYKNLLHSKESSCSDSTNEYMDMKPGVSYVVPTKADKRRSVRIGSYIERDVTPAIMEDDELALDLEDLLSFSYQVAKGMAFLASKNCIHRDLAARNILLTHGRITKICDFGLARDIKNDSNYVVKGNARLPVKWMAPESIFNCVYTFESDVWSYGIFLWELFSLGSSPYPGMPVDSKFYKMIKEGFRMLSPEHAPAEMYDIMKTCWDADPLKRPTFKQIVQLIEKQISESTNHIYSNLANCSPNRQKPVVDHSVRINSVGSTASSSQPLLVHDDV

[22] = target: 5'-AMP-activated protein kinase catalytic subunit alpha-2 (Homo sapiens) (UniProt P54646); conditions: Compound concentration 1000.0 nM
[23] = target: Macrophage colony-stimulating factor 1 receptor (Homo sapiens) (UniProt P07333); conditions: Compound concentration 1000.0 nM
[24] = target: Serine/threonine-protein kinase TAO2 (Homo sapiens) (UniProt Q9UL54); conditions: Compound concentration 1000.0 nM
[25] = test system: Proto-oncogene tyrosine-protein kinase receptor Ret (Homo sapiens), P07949 [M918T]; conditions: Compound concentration 1000.0 nM
[26] = target: Mast/stem cell growth factor receptor Kit (Homo sapiens) (UniProt P10721); conditions: Compound concentration 1000.0 nM
Chain of Mast/stem cell growth factor receptor Kit (Homo sapiens) (P10721 whole entry): as the sequence (P10721 whole entry V559D/T670I) above, with D559V, I670T counted along it

[27] = test system: Epidermal growth factor receptor (Homo sapiens), P00533 [L861Q]; conditions: Compound concentration 1000.0 nM
[28] = target: Cyclin-dependent kinase 7 (Homo sapiens) (UniProt P50613); conditions: Compound concentration 1000.0 nM
[29] = target: Alpha-1D adrenergic receptor (Homo sapiens) (UniProt P25100); conditions: Compound concentration 10.0 uM
Chain of Alpha-1D adrenergic receptor (Homo sapiens) (P25100 whole entry): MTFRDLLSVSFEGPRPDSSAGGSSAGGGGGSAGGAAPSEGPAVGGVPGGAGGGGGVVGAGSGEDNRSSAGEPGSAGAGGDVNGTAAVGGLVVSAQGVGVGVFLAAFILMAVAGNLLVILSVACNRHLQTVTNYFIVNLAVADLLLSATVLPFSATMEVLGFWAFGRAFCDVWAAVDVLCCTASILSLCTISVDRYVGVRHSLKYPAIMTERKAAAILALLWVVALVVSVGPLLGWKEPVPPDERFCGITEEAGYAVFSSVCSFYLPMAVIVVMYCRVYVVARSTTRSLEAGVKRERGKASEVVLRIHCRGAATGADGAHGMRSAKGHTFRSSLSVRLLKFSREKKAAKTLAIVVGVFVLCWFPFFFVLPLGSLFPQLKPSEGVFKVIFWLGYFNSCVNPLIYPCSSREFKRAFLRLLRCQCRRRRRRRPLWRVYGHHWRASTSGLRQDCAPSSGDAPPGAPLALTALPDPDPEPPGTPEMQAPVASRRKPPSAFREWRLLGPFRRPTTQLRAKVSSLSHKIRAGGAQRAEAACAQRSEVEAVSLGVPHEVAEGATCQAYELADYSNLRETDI

[30] = target: Mitogen-activated protein kinase kinase kinase 7 (Homo sapiens) (UniProt O43318); conditions: Compound concentration 1000.0 nM
[31] = target: Cyclin-dependent kinase 9 (Homo sapiens) (UniProt P50750); conditions: Compound concentration 1000.0 nM
[32] = test system: Hepatocyte growth factor receptor (Homo sapiens), P08581 [Y1235D]; conditions: Compound concentration 1000.0 nM
[33] = target: Beta-2 adrenergic receptor (Homo sapiens) (UniProt P07550); conditions: Compound concentration 10.0 uM
Chain of Beta-2 adrenergic receptor (Homo sapiens) (P07550 whole entry, looked up): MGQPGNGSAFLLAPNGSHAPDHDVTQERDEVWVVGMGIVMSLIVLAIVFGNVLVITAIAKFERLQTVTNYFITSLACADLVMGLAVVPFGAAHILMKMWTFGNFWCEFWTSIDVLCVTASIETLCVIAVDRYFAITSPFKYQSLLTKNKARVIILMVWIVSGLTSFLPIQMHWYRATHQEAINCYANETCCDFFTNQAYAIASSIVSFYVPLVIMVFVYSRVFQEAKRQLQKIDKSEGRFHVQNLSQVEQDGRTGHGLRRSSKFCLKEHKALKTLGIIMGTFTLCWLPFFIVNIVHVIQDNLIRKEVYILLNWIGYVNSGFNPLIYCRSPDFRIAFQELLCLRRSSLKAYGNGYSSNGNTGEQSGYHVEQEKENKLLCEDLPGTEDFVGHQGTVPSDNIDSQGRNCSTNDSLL

[34] = target: Cyclin-dependent kinase 13 (Homo sapiens) (UniProt Q14004); conditions: Compound concentration 1000.0 nM
[35] = target: Activin receptor type-1 (Homo sapiens) (UniProt Q04771); conditions: Compound concentration 1000.0 nM
[36] = target: Phosphatidylinositol 4,5-bisphosphate 3-kinase catalytic subunit beta isoform (Homo sapiens) (UniProt P42338); conditions: Compound concentration 1000.0 nM
[37] = target: Ephrin type-B receptor 2 (Homo sapiens) (UniProt P29323); conditions: Compound concentration 1000.0 nM
[38] = target: Serine/threonine-protein kinase D2 (Homo sapiens) (UniProt Q9BZL6); conditions: Compound concentration 1000.0 nM

Chain of Maternal embryonic leucine zipper kinase (Homo sapiens) (Q14680 whole entry, looked up): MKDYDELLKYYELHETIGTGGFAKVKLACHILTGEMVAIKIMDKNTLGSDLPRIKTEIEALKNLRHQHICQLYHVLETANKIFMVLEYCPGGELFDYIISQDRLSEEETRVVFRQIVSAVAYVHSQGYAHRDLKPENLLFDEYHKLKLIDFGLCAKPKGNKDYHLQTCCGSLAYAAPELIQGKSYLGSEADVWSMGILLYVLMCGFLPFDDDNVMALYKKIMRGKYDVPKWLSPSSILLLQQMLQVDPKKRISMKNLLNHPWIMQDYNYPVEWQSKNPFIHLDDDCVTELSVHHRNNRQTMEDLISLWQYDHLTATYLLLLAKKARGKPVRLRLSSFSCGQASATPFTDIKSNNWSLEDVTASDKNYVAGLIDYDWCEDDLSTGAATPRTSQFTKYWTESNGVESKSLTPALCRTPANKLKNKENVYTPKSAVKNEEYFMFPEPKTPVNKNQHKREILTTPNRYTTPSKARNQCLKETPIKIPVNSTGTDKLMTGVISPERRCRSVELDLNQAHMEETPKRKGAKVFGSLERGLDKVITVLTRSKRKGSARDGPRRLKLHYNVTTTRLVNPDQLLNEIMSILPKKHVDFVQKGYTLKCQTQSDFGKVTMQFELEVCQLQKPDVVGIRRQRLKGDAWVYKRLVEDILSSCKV

SMILES | residual activity [1] | residual activity [2] | Ki ([3]; read-out: Ki) | Ki ([3]; read-out: pKi (converted)) | residual activity [4] | residual activity [5] | residual activity [6] | residual activity [7] | Ki [8] | residual activity [9] | residual activity [10] | residual activity [11] | residual activity [12] | residual activity [13] | residual activity [14] | residual activity [15] | residual activity [16] | residual activity [17] | residual activity [18] | residual activity [19] | also measured
CNCc1ccccc1-c1csc([C@H](C)Nc2nc(C)nc3cc(OC)c(OC)cc23)c1 [BAY-294] | 74% | 100% | 706 nM | 692 nM | 97% | 93% | 100% | 100% | 127 nM | 100% | 100% | 90% | 94% | 100% | 100% | 99% | 100% | 100% | 92% | 98% | residual activity [20]: 99%; residual activity [21]: 100%; residual activity [22]: 100%; residual activity [23]: 91%; residual activity [24]: 90%; residual activity [25]: 99%; residual activity [26]: 100%; residual activity [27]: 97%; residual activity [28]: 61%; inhibition [29]: 81.2%; residual activity [30]: 75%; residual activity [31]: 100%; residual activity [32]: 98%; inhibition [33]: 18.2%; residual activity [34]: 93%; residual activity [35]: 100%; residual activity [36]: 89%; residual activity [37]: 100%; residual activity [38]: 99%
CNCc1ccccc1-c1csc([C@@H](C)Nc2nc(C)nc3cc(OC)c(OC)cc23)c1 [BAY-293] | 53% | 88% | 3400 nM | 2880 nM | 88% | 100% | 100% | 86% | 381 nM | 100% | 99% | 76% | 86% | 97% | 86% | 77% | 91% | 100% | 86% | 78% | residual activity [20]: 88%; residual activity [21]: 80%; residual activity [22]: 97%; residual activity [23]: 91%; residual activity [24]: 86%; residual activity [25]: 70%; residual activity [26]: 100%; residual activity [27]: 97%; residual activity [28]: 63%; inhibition [29]: 75%; residual activity [30]: 70%; residual activity [31]: 100%; residual activity [32]: 100%; inhibition [33]: 12.1%; residual activity [34]: 89%; residual activity [35]: 100%; residual activity [36]: 96%; residual activity [37]: 100%; residual activity [38]: 100%
